These results are taken from patent US20240360151A1 (SANOFI, priority 2023, published 2024).

For the assay, the target named is T1, NLRP3 inflammasome (Homo sapiens, UniProt Q96P20).
T1 construct: endogenous in cells; host or cells: THP-1 monocytic cells
T1 sequence (Q96P20 whole entry): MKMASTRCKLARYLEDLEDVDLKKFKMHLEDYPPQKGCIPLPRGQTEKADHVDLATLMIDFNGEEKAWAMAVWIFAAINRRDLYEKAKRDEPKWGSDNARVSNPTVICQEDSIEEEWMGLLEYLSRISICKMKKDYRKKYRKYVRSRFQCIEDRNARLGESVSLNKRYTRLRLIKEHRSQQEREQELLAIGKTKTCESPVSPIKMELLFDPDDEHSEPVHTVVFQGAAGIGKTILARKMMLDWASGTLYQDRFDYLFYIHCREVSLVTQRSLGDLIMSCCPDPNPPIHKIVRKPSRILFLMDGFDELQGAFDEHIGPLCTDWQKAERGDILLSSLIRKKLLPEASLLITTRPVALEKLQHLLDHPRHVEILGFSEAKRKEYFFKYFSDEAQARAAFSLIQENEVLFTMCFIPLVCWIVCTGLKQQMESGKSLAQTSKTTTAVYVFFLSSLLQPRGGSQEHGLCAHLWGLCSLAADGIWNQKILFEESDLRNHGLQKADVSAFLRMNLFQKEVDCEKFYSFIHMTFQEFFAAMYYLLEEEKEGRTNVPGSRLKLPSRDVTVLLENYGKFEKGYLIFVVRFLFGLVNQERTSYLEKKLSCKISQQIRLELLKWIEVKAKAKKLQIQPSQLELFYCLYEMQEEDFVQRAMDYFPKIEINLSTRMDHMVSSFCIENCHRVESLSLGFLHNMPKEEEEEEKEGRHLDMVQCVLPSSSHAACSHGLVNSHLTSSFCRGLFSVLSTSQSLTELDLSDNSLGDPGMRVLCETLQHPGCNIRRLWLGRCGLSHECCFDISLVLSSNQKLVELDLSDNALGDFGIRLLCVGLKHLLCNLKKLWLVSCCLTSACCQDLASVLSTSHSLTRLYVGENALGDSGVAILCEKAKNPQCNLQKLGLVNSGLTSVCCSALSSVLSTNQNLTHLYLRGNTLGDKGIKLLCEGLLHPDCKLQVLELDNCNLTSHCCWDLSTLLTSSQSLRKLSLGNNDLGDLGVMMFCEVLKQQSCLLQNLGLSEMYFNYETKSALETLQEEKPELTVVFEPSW
Briefly: IL-1β secretion assay (NLRP3 IC50) in LPS-primed, nigericin-activated THP-1 cells, HTRF. The class given is cell-based. The settings on record: monocytic THP-1 cells; LPS 10 ng/mL 3 h priming, then compound + nigericin 10 μM 2 h; relative IC50, 10 concentrations, geometric mean. The gist of the method: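 THP-1 cells primed with LPS 10 ng/mL for 3 h at 37° C., then compound (10-point 1:3 dilution, 0.1% DMSO) added with 10 μM nigericin for 2 h. Supernatant IL-1β measured by HTRF; relative IC50 from a 4-parameter logistic fit, reported as geometric mean.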
In general terms: In TR-FRET formats the signal depends on donor and acceptor labels being close together.
As to `OC[C@@H]1CCN1c1ccc(-c2c(O)cc(Cl)cc2Cl)nn1` [Example 117, 3,5-dichloro-2-[6-[(2S)-2-(hydroxymethyl)azetidin-1-yl]pyridazin-3-yl]phenol], the IC50 (in general, the concentration at which inhibition is half-maximal) was 869 nM.
In the case of `CC(=O)N1C[C@@H]2OCCN(c3ccc(-c4c(C)cc(C(F)(F)F)cc4O)nn3)[C@@H]2C1` (racemic) [Example 335, 1-[rac-(4aR,7aS)-4-[6-[2-hydroxy-6-methyl-4-(trifluoromethyl)phenyl]pyridazin-3-yl]-2,3,4a,5,7,7a-hexahydropyrrolo[3,4-b][1,4]oxazin-6-yl]ethanone], the half-maximal inhibitory concentration (IC50) is 481 nM.
The value for `CCc1cc(N2CCO[C@@H]3CCN(C)C[C@@H]32)nnc1-c1ccc(C)cc1O` [Example 470, 2-[6-[(4aS,8aR)-6-methyl-3,4a,5,7,8,8a-hexahydro-2H-pyrido[4,3-b][1,4]oxazin-4-yl]-4-ethyl-pyridazin-3-yl]-5-methyl-phenol] was 0.38 nM; that for `Cc1cc(C)c(-c2ccc(N3CCO[C@H](C4(N)CC4)C3)nn2)c(O)c1` (single isomer, unassigned) [Example 135] was 997 nM; that for `Cc1cc(C)c(-c2ccc(N3CCCC34CCCN(C)C4)nn2)c(O)c1` (centres unmarked) [Example 428, 3,5-dimethyl-2-[6-(9-methyl-1,9-diazaspiro[4.5]decan-1-yl)pyridazin-3-yl]phenol] was 1020 nM.
As to `CC(=O)N1C[C@@H]2OCCN(c3ccc(-c4c(C)cc(C)cc4O)nn3)[C@H]2C1` (racemic) [Example 257, 1-[rac-(4aS,7aS)-4-[6-(2-hydroxy-4,6-dimethylphenyl)pyridazin-3-yl]-2,3,4a,5,7,7a-hexahydropyrrolo[3,4-b][1,4]oxazin-6-yl]ethanone], the concentration for half-maximal inhibition (IC50) amounted to 7490 nM.
In the case of `Cc1cc(C)c(-c2ccc(N3CCO[C@@H]4C[C@@H](O)C[C@@H]43)nn2)c(O)c1` (single isomer, unassigned) [Example 466], the IC50 turned out to be 100 nM.
As for `Cc1ccc(-c2nnc(N3CC[C@@H]4CCN(C)C[C@@H]43)cc2C(F)F)c(O)c1` (single isomer, unassigned) [Example 506], the IC50 was found to be 135 nM.
In the case of `CN(C)C[C@@H]1CN(c2ccc(-c3c(O)cc(Cl)cc3Cl)nn2)CCO1` [Example 43, 3,5-dichloro-2-[6-[(2R)-2-[(dimethylamino)methyl]morpholin-4-yl]pyridazin-3-yl]phenol], the IC50 is 603 nM.
In the case of `Cc1cc(C(F)(F)F)cc(O)c1-c1ccc(N2CC3CCC2CN(C)C3)nn1` (centres unmarked) [Example 417, 3-methyl-2-[6-(3-methyl-3,6-diazabicyclo[3.2.2]nonan-6-yl)pyridazin-3-yl]-5-(trifluoromethyl)phenol], the IC50 was 716 nM.
The value for `CCc1cc(Cl)cc(O)c1-c1ccc(N2CC[C@@H]3CCN(C)C[C@@H]32)nn1` (single isomer, unassigned) [Example 494] was 1 nM; that for `Cc1cc(C)c(-c2ccc(N3CCOc4ccncc43)nn2)c(O)c1` [Example 362, 2-[6-(2,3-dihydropyrido[4,3-b][1,4]oxazin-4-yl)pyridazin-3-yl]-3,5-dimethyl-phenol] was 3540 nM; that for `Cc1cc(C(F)(F)F)cc(O)c1-c1ccc(N2CC[C@H]3[C@@H]2CCN3C)nn1` (racemic) [Example 484, 3-methyl-2-[6-[rac-(3aS,6aS)-1-methyl-2,3,3a,5,6,6a-hexahydropyrrolo[3,2-b]pyrrol-4-yl]pyridazin-3-yl]-5-(trifluoromethyl)phenol] was 25 nM.
Regarding `Cc1cc(C(F)(F)F)cc(O)c1-c1ccc(N2CCC[C@H](CO)C2=O)nn1` (single isomer, unassigned) [Example 287], the IC50 turned out to be 115 nM.
As for `Cc1cc(C)c(-c2ccc(N3CCC4(CC3)CC(O)C4)nn2)c(O)c1` [Example 3, 7-[6-(2-hydroxy-4,6-dimethyl-phenyl)pyridazin-3-yl]-7-azaspiro[3.5]nonan-2-ol], the IC50 amounted to 2030 nM.
For `Cc1cc(C)c(-c2ccc(N3CC[C@@H]3CO)nn2)c(O)c1` [Example 118, 2-[6-[(2R)-2-(hydroxymethyl)azetidin-1-yl]pyridazin-3-yl]-3,5-dimethyl-phenol], the IC50 is 758 nM.
Next, `Cc1cc(C)c(-c2nnc(N3CCO[C@H](CO)C3)cc2C)c(O)c1` [Example 112, 2-[6-[(2S)-2-(hydroxymethyl)morpholin-4-yl]-4-methyl-pyridazin-3-yl]-3,5-dimethyl-phenol]: 88 nM; `Cc1cc(Cl)cc(O)c1-c1ccc(N2CCO[C@H]3CCN(C)C[C@H]32)nn1` (single isomer, unassigned) [Example 307]: 410 nM; `Cc1cc(C)c(-c2ccc(N3CCO[C@@H](C(N)=O)C3)nn2)c(O)c1` [Example 183, (2R)-4-[6-(2-hydroxy-4,6-dimethylphenyl)pyridazin-3-yl]morpholine-2-carboxamide]: 685 nM.
As to `CC(=O)N1CC[C@H]2CCN(c3cc(C)c(-c4ccc(C(F)(F)F)cc4O)nn3)[C@H]2C1` [Example 514, 1-[(3aR,7aR)-1-[6-[2-hydroxy-4-(trifluoromethyl)phenyl]-5-methyl-pyridazin-3-yl]-3,3a,4,5,7,7a-hexahydro-2H-pyrrolo[2,3-c]pyridin-6-yl]ethanone], the IC50 was 196 nM.
For the compound `Cc1cc(C)c(-c2ccc(N3C[C@@H]4NCCO[C@H]4C3)nn2)c(O)c1` [Example 185, 2-[6-[(4aS,7aS)-3,4,4a,5,7,7a-hexahydro-2H-pyrrolo[3,4-b][1,4]oxazin-6-yl]pyridazin-3-yl]-3,5-dimethylphenol], the IC50 stood at 3220 nM.
In the case of `CC(=O)N1CC[C@H]2[C@@H]1CCN2c1ccc(-c2c(C)cc(C(F)(F)F)cc2O)nn1` (racemic) [Example 377, 1-[rac-(3aS,6aS)-1-[6-[2-hydroxy-6-methyl-4-(trifluoromethyl)phenyl]pyridazin-3-yl]-2,3,3a,5,6,6a-hexahydropyrrolo[3,2-b]pyrrol-4-yl]ethanone], the IC50 was 296 nM.
Consider `Cc1cc(C)c(-c2ccc(N3CCO[C@H]4CCN(C)C[C@H]43)nn2)c(O)c1` [Example 310, 2-[6-[(4aR,8aS)-6-methyl-3,4a,5,7,8,8a-hexahydro-2H-pyrido[4,3-b][1,4]oxazin-4-yl]pyridazin-3-yl]-3,5-dimethyl-phenol], for which the IC50 is 496 nM.
`Cc1cc(C)c(-c2ccc(N3CCO[C@H](C(N)=O)C3)nn2)c(O)c1` [Example 181, (2S)-4-[6-(2-hydroxy-4,6-dimethylphenyl)pyridazin-3-yl]morpholine-2-carboxamide]: the IC50 is 1390 nM.
Take `Oc1cc(Cl)cc(Cl)c1-c1ccc(N2CCC(F)(F)CC2)nn1` [Example 49, 3,5-dichloro-2-[6-(4,4-difluoro-1-piperidyl)pyridazin-3-yl]phenol]: the IC50 is 672 nM.
The value for `CCc1cc(Cl)cc(O)c1-c1ccc(N2CCO[C@@H]3CCN(C)C[C@@H]32)nn1` [Example 461, 2-[6-[(4aS,8aR)-6-methyl-3,4a,5,7,8,8a-hexahydro-2H-pyrido[4,3-b][1,4]oxazin-4-yl]pyridazin-3-yl]-5-chloro-3-ethyl-phenol] was 1 nM; that for `Cc1ccc(O)c(-c2ccc(N3CCO[C@H](CO)C3)nn2)c1C` [Example 191, 2-[6-[(2S)-2-(hydroxymethyl)morpholin-4-yl]pyridazin-3-yl]-3,4-dimethylphenol] was 1120 nM.
Next, `CCc1cc(C(F)(F)F)cc(O)c1-c1ccc(N2CC[C@H]3CCN(C)C[C@H]32)nn1` (single isomer, unassigned) [Example 491]: 185 nM; `Cc1cc(C)c(-c2ccc(N3CCc4cccc(O)c43)nn2)c(O)c1` [Example 253, 1-[6-(2-hydroxy-4,6-dimethyl-phenyl)pyridazin-3-yl]indolin-7-ol]: 6750 nM.
`CC(=O)N1CCC2OCCN(c3ccc(-c4c(C)cc(C(F)(F)F)cc4O)nn3)C2C1` (single isomer, unassigned) [Example 336]: the IC50 was 1160 nM.
Take `OC[C@@H]1CN(c2ccc(-c3c(O)cccc3F)nn2)CCO1` [Example 44, 3-fluoro-2-[6-[(2S)-2-(hydroxymethyl)morpholin-4-yl]pyridazin-3-yl]phenol]: the half-maximal inhibitory concentration (IC50) is 862 nM.
`CC(=O)N1CC[C@H]2CCN(c3ccc(-c4c(C)cc(C(F)(F)F)cc4O)nn3)[C@H]2C1` [Example 395, 1-[(3aR,7aR)-1-[6-[2-hydroxy-6-methyl-4-(trifluoromethyl)phenyl]pyridazin-3-yl]-3,3a,4,5,7,7a-hexahydro-2H-pyrrolo[2,3-c]pyridin-6-yl]ethanone]: the IC50 stood at 234 nM.
As to `CC(=O)N1CC[C@@H]2OCCN(c3ccc(-c4c(C)cc(C(F)(F)F)cc4O)nn3)[C@H]2C1` (single isomer, unassigned) [Example 349], the IC50 is 953 nM.
For the compound `Cc1cc(C)c(-c2ccc(N3CCO[C@H]4C[C@H](O)C[C@H]43)nn2)c(O)c1` (single isomer, unassigned) [Example 467], the IC50 amounted to 14 nM.
As to `Cc1cc(C)c(-c2ccc(N3CCC[C@@H]4CCN(C)C(=O)[C@@H]43)nn2)c(O)c1` (racemic) [Example 290, rac-(4aR,8aR)-1-[6-(2-hydroxy-4,6-dimethyl-phenyl)pyridazin-3-yl]-7-methyl-3,4,4a,5,6,8a-hexahydro-2H-1,7-naphthyridin-8-one], the IC50 amounted to 145 nM.
As for `Cc1cc(C)c(-c2ccc(N3CC(=O)N[C@@H](CO)C3)nn2)c(O)c1` (single isomer, unassigned) [Example 329], the IC50 amounted to 711 nM.
`CN1CC[C@@H]2CCN(c3cc(C(F)F)c(-c4ccc(C(F)(F)F)cc4O)nn3)[C@@H]2C1` (single isomer, unassigned) [Example 482]: the IC50 stood at 172 nM.
On to `CCc1cc(Cl)cc(O)c1-c1ccc(N2CC[C@H]3CCN(C)C[C@H]32)nn1` (single isomer, unassigned) [Example 493], for which the IC50 is 171 nM.
